According to patent US20250114430A1, “MODIFIED PEPTIDOMIMETICS AND METHODS OF USE” (The University of North Carolina at Chapel Hill, priority 2021, published 2025):
“Also recorded” adds a separate entry of the source. No end group written: not given here.

What was measured:
[1] = format: in vitro ADME, human
Source text: (§1) ELD607 is active in ARDS patient immune cells. Pulmonary neutrophilic inflammation and increased lung neutrophil elastase levels are common in ARDS patient lungs. We therefore evaluated whether ELD607 remained stable in BAL samples patients with ARDS caused by bacterial pneumonia. […] (FIG. 27, panel A).

Orai1 = Orai1 (Homo sapiens, UniProt Q96D31); assay: Orai1 immunocytochemistry on immune cells of ARDS/bacterial pneumonia patients; format: cell-based; set-up: immune cells of ARDS/bacterial pneumonia patients; endogenous in cells; host or cells: immune cells from tracheal aspirates of ARDS/bacterial pneumonia patients; settings: paired patient samples
Source text: We then performed Orai1 immunocytochemistry on paired samples of immune cells of ARDS/bacterial pneumonia patients. Cells derived from each patient were exposed to either vehicle, ELD607, or scrambled ELD607 (FIG. 27, panels D and E).

HEK293T cells [2] = assay: Inhibition of Ca^2+ influx in HEK293T cells after pre-incubation of peptide in CF sputum; format: cell-based; settings: peptide incubated 6 h in CF sputum, then HEK293T cells, thapsigargin
αSMA = αSMA expression in fibroblasts after three days of TGFβ (confocal microscopy); format: cell-based
Experimental: After three days of TGFβ induced αSMA deposition, ELD607 was then added for 24 h at 10 μM and αSMA expression was assessed by confocal microscopy. Data are shown as mean+/−SEM and data were analyzed by ANOVA.
FIG. 39A-39B show ELD607 reduces αSMA deposition. After three days of TGFβ induced αSMA deposition, ELD607 or other compounds (pirfenidone, nintedanib, zigovractin, YM-58483) were then added as indicated for 24 h at 10 μM. […] Data are shown as mean+/−SEM and data were analyzed by ANOVA.
In vitro Methods: Fibroblasts were exposed to 10 nM TFGβ for 3-7 days as indicated. Then, ELD607 was added overnight. Fibroblasts were then fixed in paraformaldehyde, stained with primary a smooth muscle actin (αSMA) antibody, and imaged by confocal microscopy. Myofibroblasts were exposed to ELD607 without any TGFβ pre-treatment. In some cases, Western blotting was used to probe for αSMA.
Fibroblasts were exposed to TGFβ for three days and then exposed to vehicle or the indicated compounds. Cells were then fixed, stained for αSMA, and expression measured by confocal microscopy.

[3] = system: Primary human bronchial epithelial cultures; assay: Cytotoxicity and transepithelial resistance in primary human bronchial epithelial cultures; format: cell-based; settings: 1 mM, 24 h
Experimental: FIG. 28 panels C and D show cell viability per arbitrary units (left) and transepithelial resistance (right) of vehicle vs. ELD607 before and after treatment.
ELD607 is non-toxic in vitro and in vivo. To investigate potential cytotoxic effects of ELD607, […] were exposed to 100 μM ELD607 for 24 h. Cytotoxicity was assessed by exposing cells to calcein to label live cells and fluorescence read by multi-plate reader. […] Primary human bronchial epithelial cultures were exposed to 1 mM ELD607 or vehicle control (saline) for 24 h. Cytotoxicity was assessed by confocal microscopy using calcein and propidium iodide to label live and dead cells respectively. […] Transepithelial resistance was also measured before and after treatment as a measure of epithelial integrity.

HEK293T cells [4] = assay: Store operated Ca^2+ influx in HEK293T cells after incubation of peptide in ARDS BAL; format: cell-based
Source text: as §1

SCNN1B mice = assay: SCNN1B (βENaC) overexpressing mice, chronic pulmonary inflammation; format: in vivo
Experimental: SCNN1B and littermate control mice were exposed to ELD607 or vehicle intranasally on a daily basis for 11 days, starting on day 1 post-partum.
FIG. 32 panel A: Mice were infected with P. aeruginosa for 24 h; then, 0.5 mg/kg ELD607 was added intratracheally. BAL was collected 24 h later to determine cell counts. SCNN1B mice were given 0.5 mg/kg ELD607 daily for 11 days before sacrifice and BAL collection. FIG. 32 panel B: Survival of bENaC mice.
Additional models were tested such as the house dust mite (HDM) allergic lung inflammation model (FIG. 20); and SCNN1B-overexpression, wherein mice develop mucus obstruction and spontaneous pulmonary inflammation (FIG. 21).
Repeated ELD607 exposure reduces chronic inflammation in βENaC overexpressing mice. We added ELD607 to βENaC overexpressing mice, which spontaneously develop chronic infection and neutrophilia and have increased mortality (FIG. 32, panel A).

[5] = system: P. aeruginosa, Staphylococcus aureus, and Haemophilus influenzae; assay: Murine bacterial infection models (three organisms); format: in vivo, mice
Experimental: Mice were dosed intranasally with P. aeruginosa (PA), S. aureus (Sa), or H. influenzae followed by vehicle (saline) or 0.5 mg/kg of ELD100 or ELD607 per mouse. FIG. 19 panels A, F, and K show total cell counts; FIG. 19 panels B, G, and L show BAL macrophages; FIG. 19 panels C, H, and M show BAL neutrophils; FIG. 19 panels D, I, and N show whole lung CFUs; and FIG. 19 panels E, J, and O show spleen CFUs. Top row, P. aeruginosa, middle row, S. aureus, bottom row, H. influenzae. * p<0.05 different from naïve mice; #p<0.05 different from infected mice.
ELD607 reduces neutrophilia and increases lung bacterial clearance in multiple murine bacterial infection models. Neutrophilia is a common feature of both Gram-positive and Gram-negative lung infections. Accordingly, further studies were performed with P. aeruginosa, Staphylococcus aureus, and Haemophilus influenzae (FIG. 19 panels B, C, G, H, L, and M). After infection with all three organisms, significant levels of bacteria were detected in the lung and spleen, and the infections increased total BAL cell numbers due to neutrophilia, while relative BAL macrophage numbers declined (FIG. 19 panels A-O). […] Moreover, 24 h after infection, about 10^9 CFUs could be detected in murine whole lung homogenate.

[6] = 0.5 mg/kg intranasal, 24 h after infection

Chain of Orai1 (Q96D31 whole entry): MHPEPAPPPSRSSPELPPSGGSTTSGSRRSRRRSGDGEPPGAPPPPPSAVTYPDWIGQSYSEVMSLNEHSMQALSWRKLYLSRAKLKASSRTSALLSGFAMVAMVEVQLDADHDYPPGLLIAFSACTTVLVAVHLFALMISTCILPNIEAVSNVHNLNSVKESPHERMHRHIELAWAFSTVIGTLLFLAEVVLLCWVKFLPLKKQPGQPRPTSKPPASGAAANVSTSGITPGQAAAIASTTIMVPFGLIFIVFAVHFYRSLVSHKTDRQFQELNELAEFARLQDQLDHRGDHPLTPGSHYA

Sequence: VHDIVNMLIRG [ELD607, VHDIVNMLIRG]
- stability in ARDS BAL [1]: remained stable over 8 h
- Orai1 levels (Orai1): significant reduction in Orai1 levels
- inhibition of Ca^2+ influx after pre-exposure to CF sputum (HEK293T cells [2]): retained full functionality
- reduction in αSMA versus pirfenidone, nintedanib, zigrocractin and YM-58483 (αSMA; 10 μM, 24 h): significantly greater reduction in αSMA than all other compounds tested
- αSMA expression, dose dependence (αSMA; TGFβ three days, then ELD607 24 h): dose-dependently reduced αSMA expression
- cytotoxicity (calcein and propidium iodide) [3]: not significantly different to vehicle control
- transepithelial resistance ([3]; before and after treatment): No differences were found
- inhibition of store operated Ca^2+ influx after incubation in ARDS BAL (HEK293T cells [4]): did not prevent ELD607 from inhibiting store operated Ca^2+ influx
- survival of βENaC overexpressing mice (SCNN1B mice; daily intranasal 0.5 mg/kg): increased survival
- neutrophils in SCNN1B (βENaC) mice (SCNN1B mice; daily intranasal 0.5 mg/kg, 11 days): significantly reduced lung neutrophilia; also recorded: significantly decreased BAL neutrophil levels
- BAL cells in WT littermate mice (SCNN1B mice; daily intranasal, 11 days): no effect on WT mice
- lung macrophage levels [5, 6]: significantly normalized lung macrophage levels
- neutrophilia [5, 6]: reduced neutrophilia
- reduction in lung bacteria ([5]; FIG. 19 panels D and I): 3-5 log10
- sepsis (spleen CFUs) ([5]; FIG. 19 panels E and J): significantly reduced sepsis
- overall outcomes ([5]; all three infections): significantly improved outcomes
